This note sets out measurements from PMC11013143, “4-Chloroisocoumarins as Chlamydial Protease Inhibitors and Anti-Chlamydial Agents” (Molecules, 2024).

Converted amounts (≈) assume the structure as drawn.

For series [1], the target named is T1, Human Leukocyte Elastase (HLE) (Homo sapiens, UniProt P08246).
T1 construct: purchased Athens Research and Technology 16-15-051200
T1 sequence (P08246 30-247 limits assumed): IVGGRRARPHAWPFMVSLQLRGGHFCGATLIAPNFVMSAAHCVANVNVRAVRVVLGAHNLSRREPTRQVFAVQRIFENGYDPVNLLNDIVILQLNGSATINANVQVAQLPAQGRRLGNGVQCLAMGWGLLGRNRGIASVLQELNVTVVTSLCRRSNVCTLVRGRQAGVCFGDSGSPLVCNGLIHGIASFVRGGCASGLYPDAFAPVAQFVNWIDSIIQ
Description: HLE protease inhibition assay. It counts as biochemical. On the procedure: Elastase was purchased from Athens Research and Technology (Cat No. 16-15-051200). Elastase (100 µg) was dissolved in Tris buffer (100 mM Tris, 20 mM CaCl2, pH 8.1, 3.14 mL), giving a concentration of 1.117 µM, and 25 µL was added to each well containing the respective inhibitor. The plate was incubated at 37 °C for 15 min.
N-Suc-AAA-pNA (Sigma Aldrich, Bayswater, Australia, S4760, 100 µL, 1 mg/mL, […]) was added to each well, and the absorbance was monitored every six minutes at 405 nm. The rate of change of absorbance was used as a comparison to controls to determine the % inhibition of protein in Microsoft Excel^TM (v2402), and these values were exported to GraphPad Prism (v8.0.1) for IC50 calculation.

For series [2], the system named is C. trachomatis. Description: Chlamydia trachomatis growth inhibition assay in HEp-2 host cells. It counts as cell-based. The conditions noted are these: for statistical significance of anti-chlamydial activity: relative to solvent controls. On the procedure: The workflow for the evaluation of chlamydial growth inhibition is described in the supplementary information (Figure S6). Briefly, HEp-2 cells were seeded in a 96-well plate and grown for 24 h; they were then infected with a fixed quantity of C. trachomatis. The infection was propagated for 4 h, and then a mixture of test compound and cycloheximide was added and the plate was incubated for a further 26 h (30 h post infection). The cells were fixed with methanol and then stained with fluorescent antibodies to visualize chlamydial inclusions, and the growth was measured using inclusion counts relative to vehicle controls.
HEp-2 cells were grown until confluent in a T-75 flask with DMEM (containing 10% FCS, gentamycin (0.05 mg/mL), streptomycin (0.1 mg/mL) and glutamine (Sigma-Aldrich Cat No. G7513, 4 mM); they were then harvested with trypsin, and the cell density was determined with a haemocytometer. Cells were diluted to 1 × 10^5 cells/mL, and 200 µL was dispensed to each well in a 96-well plate and then incubated for 24 h at 5% CO2 at 37 °C.
The supernatant was removed, and 100 µL of the respective chlamydia species in media (100,000 IFU/mL) was added, giving an MOI of 0.5. The plate was sealed and centrifuged at 500× g/28 °C for 30 min and then incubated for a further 3.5 h at 37 °C with 5% CO2. The supernatant was removed, and 100 µL of cycloheximide in DMEM (1 µg/mL) was added in addition to 100 µL of drug stock solution to each respective well with DMSO and media negative controls and also azithromycin positive control. The plate was incubated for a further 26 h.
The supernatant was removed, and wells were washed with PBS (2 × 150 µL) and then fixed in methanol for eight minutes. The methanol was removed and washed with additional PBS (2 × 150 µL) and stored at 4 °C with 100 µL PBS per well and then stained and analyzed using fluorescence microscopy, which is outlined below.
Cells in fixed plates were permeabilized with 0.5% Triton X-100 in PBS for 15 min and then blocked with 1% BSA in PBS for 45 min. Anti-HtrA polyclonal antibody (sera) (1:600) (in-house), anti-mouse tubulin (Sigma-Aldrich Cat no. T-5168, 1:3000) and DAPI (125 ng/mL) in PBS were added to each well (70 µL) and then gently shaken at room temperature while shielding it from light for 45 min. The primary antibodies were removed, and the wells were washed with PBS (4 × 150 µL). Secondary antibodies (goat anti-rabbit Alexafluor 488, Thermo Fisher Cat No. A-11008 and goat anti-mouse Alexafluor 568 (Thermo Fisher Cat No. A-11004)) in PBS (70 µL, 1:600 respectively) were added and the wells were gently shaken at room temperature while shielding them from light for 45 min. The antibodies were removed, and the wells were washed with PBS (5 × 150 µL); cells were then stored with PBS (100 µL per well) at 4 °C pending analysis.
Plates were analyzed on an INcell Analyzer 2200 (Cytiva Life Sciences, Marlborough, MA, USA) using both laser autofocus (10%) and software autofocus modes, with ten random images per well covering a minimum of 80% of the well at 10x magnification. Non-morphologically affected inclusions were counted using a macro in ImageJ (v1.54f), and MIC was defined as being one two-fold dilution more concentrated than MICTP (where MICTP is defined as the lowest concentration to produce ≥90% morphologically abnormal inclusions) relative to solvent controls.

The subject of series [3] is HEp-2 cells. Description: MTS cell viability assay, HEp-2 cells. It counts as cell-based, human. Conditions: 24 h; for effect on HEp-2 cell viability: any tested concentration (31.25, 62.5, 125 µM). As to the method:
The cytotoxic effects of the 4-chloroisocoumarin compounds 2a–g and 6a–h (24 h) were tested against HEp-2 and McCoy B cells using the MTS cell viability assay. HEp-2 and McCoy B cells were selected, as these are routinely used for the cultivation of chlamydial species, and low cytotoxicity against host cells is required to evaluate the anti-chlamydial properties of a test compound [27].
HEp-2 (human epithelial type 2, CCL-23, ATCC®, Virginia, USA) or McCoy B (mouse fibroblast, CRL-1696, ATCC®) cells were grown to 80–100% confluence, and cell density was determined with a haemocytometer. Cells were then diluted to 1 × 10^5 cells/mL, and 100 µL was added to each well in a 96-well plate, with 3 wells left as controls. Cells were grown for 24 h, and the media was removed and then replaced with fresh media containing 0.1% DMSO and the drug for testing in triplicate. Drugs and cells were incubated for 24 h, and then 20 µL of MTS and PMS solution was added and then incubated for a further four hours. Absorbance was measured at 490 nm on a TECAN M200 Infinite plate reader and data were processed using Microsoft Excel^TM with the following equation to determine cell viability relative to DMSO controls. Cellviability%=AbsorbanceDrug−AbsorbanceDye/AbsorbanceDMSO−AbsorbanceDye
On the technique in general: Formazan colour is commonly taken as a measure of viable cells.

[4] abbreviates: 62.5 µM, 30 h post infection, HEp-2 host cells.

In the case of `CCC(C)Oc1oc(=O)c2ccccc2c1Cl` (racemic) [Compound 2g, (±)-3-sec-Butoxy-4-chloroisocoumarin], in series [1] (Table S1, variable slope four parameter fit, read-out: IC50 against HLE), the IC50 (as a rule, the point on the concentration scale where inhibition reaches its midpoint) turned out to be 1.81 µM. The “Relative Potency against HLE” value in series [1] ([IC50 of JO146]/[IC50 test compound]) stood at 0.451. In addition, the “reduction of chlamydial growth” value in series [2] (setting [4]) stood at 49%.
`CCC(C)Oc1oc(=O)c2cc(N)ccc2c1Cl` (racemic) [Compound 6a, (±)-7-Amino-4-chloro-3-sec-butoxyisocoumarin] gave a chlamydial inclusions affected in series [2] (setting [4]) of at least 90%. The “statistical significance of anti-chlamydial activity” value (“statistical significance” below) in series [2] (62.5 µM) was “statistically significant anti-chlamydial activity”. Moreover, the “inhibition of C. trachomatis growth versus 90% threshold” value in series [2] (any concentration tested, 30 h post infection, dose-response) was “did not consistently show inhibition greater than the 90% threshold”. In addition, the “effect on HEp-2 cell viability / cytotoxicity” value in series [3] (125 µM) is reported as “reduced cell viability slightly”.
`CCC(C)Oc1oc(=O)c2cc(N(C)C)ccc2c1Cl` (racemic) [Compound 6b, (±)-7-(Dimethylamino)-3-sec-butoxy-4-chloroisocoumarin] registered a chlamydial inclusions affected in series [2] (setting [4]) of at least 90%. For the same compound, in series [2] (62.5 µM), the “statistical significance” value was “statistically significant anti-chlamydial activity”. The inhibition (in general, how much of the control response was suppressed) at 31.25 µM in series [2] (Chlamydia trachomatis, HEp-2, concentrations ≥ 31.25 µM, 30 h post infection, dose-response) was over 90%. In addition, in series [2] (Chlamydia trachomatis, MIC defined as twice the MICTP (>90% altered chlamydial morphology), read-out: MIC (minimum inhibitory concentration) against C. trachomatis), the MIC turned out to be 62.5 µM (≈ 18.5 µg/mL). In addition, in series [3], the “effect on HEp-2 cell viability” value is “not found to significantly impact cytotoxicity”.
As for `CCC(C)Oc1oc(=O)c2cc(NC(C)=O)ccc2c1Cl` (racemic) [Compound 6c, (±)-N-(4-Chloro-1-oxo-3-sec-butoxy-isochromen-7-yl)acetamide], the “anti-chlamydial activity against C. trachomatis” value in series [2] (setting [4]) is on record as “did not significantly affect the efficacy of 2g”. Also, the “effect on HEp-2 cell viability” value in series [3] is recorded as “did not significantly affect cell viability”.
As for `CCC(C)Oc1oc(=O)c2cc(NC(=O)C(F)(F)F)ccc2c1Cl` (racemic) [Compound 6d, (±)-N-(4-chloro-1-oxo-3-sec-butoxy-isochromen-7-yl)-2,2,2-trifluoroacetamide], the melting point – broadly, the temperature of the solid-liquid transition – lay in the range of 189 to 190 °C. In addition, the “anti-chlamydial activity against C. trachomatis” value in series [2] (setting [4]) is “comparable efficacy to the methoxy (6h) analogue”. In addition, in series [2] (62.5 µM), the “statistical significance” value is “statistically significant anti-chlamydial activity”. Moreover, the “effect on HEp-2 cell viability” value in series [3] was “did not significantly affect cell viability”.
Regarding `CCC(C)Oc1oc(=O)c2cc(I)ccc2c1Cl` (racemic) [Compound 6e, (±)-3-sec-Butoxy-4-chloro-7-iodoisocoumarin], the “anti-chlamydial activity against C. trachomatis” value in series [2] (setting [4]) was “did not significantly affect the efficacy of 2g”. In series [2] (62.5 µM), the “statistical significance” value was “statistically significant anti-chlamydial activity”. Further, in series [3] (62.5 µM), the “cytotoxicity against HEp-2 cells” value is “retained some cytotoxicity”.
On to `CCC(C)Oc1oc(=O)c2cc(OC)ccc2c1Cl` (racemic) [Compound 6h, (±)-7-Methoxy-3-sec-butoxy-4-chloroisocoumarin], for which the “statistical significance” value in series [2] (62.5 µM) is “statistically significant anti-chlamydial activity”. Also, in series [3], the “effect on HEp-2 cell viability” value is “did not significantly affect cell viability”.
